Test results as given in the supplement of paper PMC13380429.

Assays:
Details in all cases: 72 h
HepG2 [1] = assay: relative viability EC50 (midpoint between 100% and the lowest measured viability); higher = less toxic
Vero E6 [2] = assay: as above
U2OS [3] = assay: as above
Caco-2 [4] = assay: as above
HepG2 [5] = assay: drug sensitivity score (DSS) for viability; higher = more toxic; extreme values may be limits of the assay
Vero E6 [6] = assay: as above
U2OS [7] = assay: as above
Caco-2 [8] = assay: as above
HepG2 [9] = assay: cell viability relative to DMSO; higher = less toxic
Vero E6 [10] = assay: as above
U2OS [11] = assay: as above
Caco-2 [12] = assay: as above
Calu-3 [13] = assay: relative viability EC50 (midpoint between 100% and the lowest measured viability); higher = less toxic
Calu-3 [14] = assay: drug sensitivity score (DSS) for viability; higher = more toxic; extreme values may be limits of the assay
Calu-3 [15] = assay: cell viability relative to DMSO; higher = less toxic

Row | Compound | relative viability EC50 (HepG2 [1]) | relative viability EC50 (Vero E6 [2]) | relative viability EC50 (U2OS [3]) | relative viability EC50 (Caco-2 [4]) | drug sensitivity score (HepG2 [5]) | drug sensitivity score (Vero E6 [6]) | drug sensitivity score (U2OS [7]) | drug sensitivity score (Caco-2 [8]) | cell viability (HepG2 [9]; 1 nM) | cell viability (HepG2 [9]; 10 nM) | cell viability (HepG2 [9]; 100 nM) | cell viability (HepG2 [9]; 1000 nM) | cell viability (HepG2 [9]; 10000 nM) | cell viability (Vero E6 [10]; 1 nM) | cell viability (Vero E6 [10]; 10 nM) | cell viability (Vero E6 [10]; 100 nM) | cell viability (Vero E6 [10]; 1000 nM) | cell viability (Vero E6 [10]; 10000 nM) | cell viability (U2OS [11]; 1 nM) | cell viability (U2OS [11]; 10 nM) | cell viability (U2OS [11]; 100 nM) | cell viability (U2OS [11]; 1000 nM) | cell viability (U2OS [11]; 10000 nM) | cell viability (Caco-2 [12]; 1 nM) | cell viability (Caco-2 [12]; 10 nM) | cell viability (Caco-2 [12]; 100 nM) | cell viability (Caco-2 [12]; 1000 nM) | cell viability (Caco-2 [12]; 10000 nM) | relative viability EC50 (Calu-3 [13]) | drug sensitivity score (Calu-3 [14]) | cell viability (Calu-3 [15]; 1 nM) | cell viability (Calu-3 [15]; 10 nM) | cell viability (Calu-3 [15]; 100 nM) | cell viability (Calu-3 [15]; 1000 nM) | cell viability (Calu-3 [15]; 10000 nM)
1 | CCCOc1ccc(S(=O)(=O)N2CCN(CCO)CC2)cc1-c1nc2c(CCC)cn(CC)c2c(=O)[nH]1 [mirodenafil] | > 10 µM | > 10 µM | > 10 µM | > 10 µM | 0 | 0 | 0 | 0.1 | 105% | 98.1% | 108% | 100% | 99.7% | 100% | 101% | 101% | 94.9% | 102% | 102% | 104% | 99.6% | 103% | 96.3% | 105% | 111% | 96.5% | 107% | 85.6% |  |  |  |  |  |  | 
2 | CNC1CCCN(c2c(F)cc3c(=O)c(C(=O)O)cn(C4CC4)c3c2OC)C1 (stereo not drawn) [balofloxacin] | > 10 µM |  | > 10 µM | > 10 µM | 0 |  | 0 | 0 | 114% | 97.5% | 93.1% | 104% | 104% |  |  |  |  |  | 113% | 102% | 97.5% | 103% | 93.2% | 105% | 98.3% | 98.4% | 93.3% | 99.9% | > 10 µM | 0 | 104% | 94.8% | 101% | 97.7% | 102%
3 | CNC(=O)c1c(I)c(C(=O)NCC(=O)Nc2c(I)c(C(=O)O)c(I)c(C(=O)NCCO)c2I)c(I)c(N(C)C(C)=O)c1I [ioxaglic-acid] | > 10 µM |  | > 10 µM | > 10 µM | 0 |  | 0 | 0 | 95.9% | 98.4% | 94% | 98.2% | 96.9% |  |  |  |  |  | 106% | 96.9% | 102% | 101% | 104% | 104% | 92.4% | 106% | 100% | 103% | > 10 µM | 0 | 109% | 101% | 97.2% | 102% | 95.5%
4 | Cc1ccc([N+](=O)[O-])cc1O [2-methyl-5-nitrophenol] | > 10 µM | > 10 µM | > 10 µM | > 10 µM | 0 | 0 | 0 | 0 | 106% | 91% | 99.4% | 100% | 102% | 99.9% | 94.4% | 94.3% | 98.6% | 96.2% | 108% | 96% | 101% | 96.1% | 102% | 96.9% | 105% | 101% | 94.3% | 95.3% |  |  |  |  |  |  | 
5 | CCCCC(=O)NCCc1c(Cc2ccccc2)[nH]c2ccccc12 [DH-97] | > 10 µM | > 10 µM | > 10 µM | > 10 µM | 0 | 0 | 0 | 0 | 90.8% | 100% | 100% | 105% | 103% | 102% | 98.7% | 99.8% | 97% | 93.8% | 100% | 94.7% | 99.9% | 95.1% | 96.7% | 102% | 101% | 96.8% | 92.3% | 96% |  |  |  |  |  |  | 
6 | CC[N+](CC)(CC)CCOc1cccc(OCC[N+](CC)(CC)CC)c1OCC[N+](CC)(CC)CC [gallamine-triethiodide] | > 10 µM |  | > 10 µM | > 10 µM | 0 |  | 0 | 0 | 94.7% | 102% | 94% | 93.1% | 95.6% |  |  |  |  |  | 103% | 101% | 102% | 99.8% | 100% | 104% | 96.2% | 91.5% | 98.2% | 101% | > 10 µM | 0 | 104% | 108% | 104% | 90.8% | 95%
